Reference: the kinase profiling compilation of Christmann-Franck et al. (2016)
Blank lines part the entries; values can stand above or below the molecule they belong to.

What was measured:
Assay in all cases: KINOMEscan competition binding
Settings in all cases: compound 10.0 µM
ROCK2 (human) = ROCK2 (human) (UniProt O75116)
RPS6KA5 KD1 (human) = RPS6KA5 KD1 (human) (UniProt O75582)
PLK2 (human) = PLK2 (human) (UniProt Q9NYY3)
ADCK4 (human) = ADCK4 (human) (UniProt Q96D53)
PRKAA1 (human) = PRKAA1 (human) (UniProt Q13131)
CAMK1D (human) = CAMK1D (human) (UniProt Q8IU85)
ERBB4 (human) = ERBB4 (human) (UniProt Q15303)
STK36 (human) = STK36 (human) (UniProt Q9NRP7)
BMPR1A (human) = BMPR1A (human) (UniProt P36894)
ULK2 (human) = ULK2 (human) (UniProt Q8IYT8)
Chain of ULK2 (human) (Q8IYT8 whole entry, looked up): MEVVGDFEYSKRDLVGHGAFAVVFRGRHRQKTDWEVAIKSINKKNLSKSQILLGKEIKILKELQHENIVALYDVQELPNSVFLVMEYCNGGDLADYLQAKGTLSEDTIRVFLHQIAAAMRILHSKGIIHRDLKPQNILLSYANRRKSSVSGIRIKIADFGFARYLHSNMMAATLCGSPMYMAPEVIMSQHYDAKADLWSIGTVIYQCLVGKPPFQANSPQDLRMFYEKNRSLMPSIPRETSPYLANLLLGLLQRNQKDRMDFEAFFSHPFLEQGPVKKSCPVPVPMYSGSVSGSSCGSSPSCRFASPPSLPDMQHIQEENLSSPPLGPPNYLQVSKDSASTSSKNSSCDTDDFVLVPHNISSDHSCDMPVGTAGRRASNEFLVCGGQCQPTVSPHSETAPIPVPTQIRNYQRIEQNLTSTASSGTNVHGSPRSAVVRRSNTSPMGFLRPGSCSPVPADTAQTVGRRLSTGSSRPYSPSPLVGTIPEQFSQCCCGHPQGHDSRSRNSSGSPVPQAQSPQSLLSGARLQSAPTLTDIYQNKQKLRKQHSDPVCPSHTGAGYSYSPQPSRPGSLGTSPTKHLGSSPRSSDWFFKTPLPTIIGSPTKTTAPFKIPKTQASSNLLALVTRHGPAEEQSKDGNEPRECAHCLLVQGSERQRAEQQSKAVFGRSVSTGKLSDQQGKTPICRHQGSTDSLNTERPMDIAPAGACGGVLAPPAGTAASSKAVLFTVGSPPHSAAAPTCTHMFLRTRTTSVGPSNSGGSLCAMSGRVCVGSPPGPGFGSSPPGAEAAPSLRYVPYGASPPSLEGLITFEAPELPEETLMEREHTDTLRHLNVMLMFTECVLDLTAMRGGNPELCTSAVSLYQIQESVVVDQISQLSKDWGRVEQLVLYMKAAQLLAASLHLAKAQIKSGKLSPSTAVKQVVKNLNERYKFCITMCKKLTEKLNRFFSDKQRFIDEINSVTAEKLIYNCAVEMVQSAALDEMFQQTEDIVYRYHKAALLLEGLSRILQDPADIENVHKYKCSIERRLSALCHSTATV

CDK18 (human) = CDK18 (human) (UniProt Q07002)
CDK3 (human) = CDK3 (human) (UniProt Q00526)
TLK2 (human) = TLK2 (human) (UniProt Q86UE8)
Chain of TLK2 (human) (Q86UE8 whole entry, looked up): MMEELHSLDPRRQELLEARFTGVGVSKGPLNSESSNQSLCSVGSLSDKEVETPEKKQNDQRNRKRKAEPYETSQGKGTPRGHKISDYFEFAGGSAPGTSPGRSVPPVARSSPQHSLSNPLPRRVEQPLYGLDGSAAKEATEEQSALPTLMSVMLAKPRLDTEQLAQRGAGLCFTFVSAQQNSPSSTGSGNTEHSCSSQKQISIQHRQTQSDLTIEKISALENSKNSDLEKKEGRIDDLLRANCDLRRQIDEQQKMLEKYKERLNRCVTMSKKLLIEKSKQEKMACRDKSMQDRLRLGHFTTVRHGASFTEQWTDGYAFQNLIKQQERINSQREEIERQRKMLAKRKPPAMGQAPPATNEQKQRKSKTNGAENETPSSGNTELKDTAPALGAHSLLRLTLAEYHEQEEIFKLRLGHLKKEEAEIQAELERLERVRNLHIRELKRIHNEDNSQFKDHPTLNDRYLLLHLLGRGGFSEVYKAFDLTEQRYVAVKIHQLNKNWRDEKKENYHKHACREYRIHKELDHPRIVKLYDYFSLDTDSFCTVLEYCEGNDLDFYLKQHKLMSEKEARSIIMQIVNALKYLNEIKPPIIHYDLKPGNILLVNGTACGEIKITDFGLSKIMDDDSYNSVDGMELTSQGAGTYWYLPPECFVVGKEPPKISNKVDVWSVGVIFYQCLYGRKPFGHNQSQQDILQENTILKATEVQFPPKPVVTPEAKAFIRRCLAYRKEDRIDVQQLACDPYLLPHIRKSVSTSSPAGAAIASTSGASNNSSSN

CDK11B (human) = CDK11B (human) (UniProt P21127)
Chain of CDK11B (human) (P21127 whole entry, looked up): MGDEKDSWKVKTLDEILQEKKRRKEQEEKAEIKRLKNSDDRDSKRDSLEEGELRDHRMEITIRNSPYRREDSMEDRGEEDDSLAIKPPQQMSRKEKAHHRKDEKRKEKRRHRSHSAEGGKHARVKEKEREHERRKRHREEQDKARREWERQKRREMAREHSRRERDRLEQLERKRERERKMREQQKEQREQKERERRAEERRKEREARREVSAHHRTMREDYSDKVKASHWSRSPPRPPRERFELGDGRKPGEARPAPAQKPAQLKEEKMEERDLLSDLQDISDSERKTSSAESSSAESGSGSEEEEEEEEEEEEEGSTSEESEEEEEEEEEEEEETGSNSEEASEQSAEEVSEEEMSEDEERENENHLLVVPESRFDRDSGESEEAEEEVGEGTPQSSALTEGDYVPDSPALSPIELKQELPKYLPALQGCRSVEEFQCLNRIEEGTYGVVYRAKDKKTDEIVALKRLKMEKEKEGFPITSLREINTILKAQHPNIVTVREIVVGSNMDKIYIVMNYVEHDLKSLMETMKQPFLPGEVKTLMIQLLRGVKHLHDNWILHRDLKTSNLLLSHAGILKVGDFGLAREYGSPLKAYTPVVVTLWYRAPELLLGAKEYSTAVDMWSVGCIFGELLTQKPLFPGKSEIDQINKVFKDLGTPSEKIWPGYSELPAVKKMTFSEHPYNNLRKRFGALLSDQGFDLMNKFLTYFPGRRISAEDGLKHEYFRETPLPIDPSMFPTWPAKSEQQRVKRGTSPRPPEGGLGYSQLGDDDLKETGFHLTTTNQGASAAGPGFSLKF

EPHA6 (human) = EPHA6 (human) (UniProt Q9UF33)
SLK (human) = SLK (human) (UniProt Q9H2G2)
STK32B (human) = STK32B (human) (UniProt Q9NY57)
CAMK2A (human) = CAMK2A (human) (UniProt Q9UQM7)
STK17B (human) = STK17B (human) (UniProt O94768)
IKBKB (human) = IKBKB (human) (UniProt O14920)
FLT3 (human) = FLT3 (human) (UniProt P36888)
MET (human) = MET (human) (UniProt P08581)
MAPK6 (human) = MAPK6 (human) (UniProt Q16659)
PHKG1 (human) = PHKG1 (human) (UniProt Q16816)
SIK3 (human) = SIK3 (human) (UniProt Q9Y2K2)
CDK9 (human) = CDK9 (human) (UniProt P50750)
[1] = test system: EIF2AK4 KD2 (human), Q9P2K8 [S808G]
NLK (human) = NLK (human) (UniProt Q9UBE8)
Chain of NLK (human) (Q9UBE8 whole entry, looked up): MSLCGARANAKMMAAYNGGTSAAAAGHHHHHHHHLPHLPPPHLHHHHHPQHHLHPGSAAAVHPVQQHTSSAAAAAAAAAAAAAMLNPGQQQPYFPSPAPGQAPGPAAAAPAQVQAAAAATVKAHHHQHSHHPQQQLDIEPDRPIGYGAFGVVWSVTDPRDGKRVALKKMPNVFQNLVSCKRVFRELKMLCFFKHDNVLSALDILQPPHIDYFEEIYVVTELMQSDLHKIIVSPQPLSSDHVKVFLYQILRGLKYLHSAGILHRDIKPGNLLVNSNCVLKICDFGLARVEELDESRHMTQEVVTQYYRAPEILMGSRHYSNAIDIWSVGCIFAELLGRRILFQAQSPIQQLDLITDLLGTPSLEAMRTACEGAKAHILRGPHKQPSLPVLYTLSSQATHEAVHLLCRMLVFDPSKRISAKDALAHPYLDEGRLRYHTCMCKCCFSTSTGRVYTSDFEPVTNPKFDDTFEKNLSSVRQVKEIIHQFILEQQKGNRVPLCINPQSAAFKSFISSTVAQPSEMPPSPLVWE

CDC2L2 (human) = CDC2L2 (human) (UniProt Q9UQ88)
[2] = test system: FLT3 (human), P36888 [D835H]
NIM1 (human) = NIM1 (human) (UniProt Q8IY84)
Chain of NIM1 (human) (Q8IY84 whole entry, looked up): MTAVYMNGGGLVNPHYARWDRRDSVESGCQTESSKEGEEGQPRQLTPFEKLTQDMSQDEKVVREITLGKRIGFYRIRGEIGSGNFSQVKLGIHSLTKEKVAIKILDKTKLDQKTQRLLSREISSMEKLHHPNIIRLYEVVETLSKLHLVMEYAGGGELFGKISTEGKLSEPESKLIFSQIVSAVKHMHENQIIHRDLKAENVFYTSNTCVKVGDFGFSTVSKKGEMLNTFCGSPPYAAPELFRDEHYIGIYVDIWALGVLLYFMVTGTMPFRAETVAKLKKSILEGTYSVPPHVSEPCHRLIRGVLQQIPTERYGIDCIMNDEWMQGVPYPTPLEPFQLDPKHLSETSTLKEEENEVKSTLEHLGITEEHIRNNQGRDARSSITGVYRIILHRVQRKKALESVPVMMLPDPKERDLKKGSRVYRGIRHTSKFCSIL

RIPK4 (human) = RIPK4 (human) (UniProt P57078)
CDK17 (human) = CDK17 (human) (UniProt Q00537)
CDC42BPB (human) = CDC42BPB (human) (UniProt Q9Y5S2)
NUAK1 (human) = NUAK1 (human) (UniProt O60285)
[3] = test system: PIK3CA (human), P42336 [Q546K]
CSNK1D (human) = CSNK1D (human) (UniProt P48730)
NEK9 (human) = NEK9 (human) (UniProt Q8TD19)
PRKCH (human) = PRKCH (human) (UniProt P24723)
Chain of PRKCH (human) (P24723 whole entry, looked up): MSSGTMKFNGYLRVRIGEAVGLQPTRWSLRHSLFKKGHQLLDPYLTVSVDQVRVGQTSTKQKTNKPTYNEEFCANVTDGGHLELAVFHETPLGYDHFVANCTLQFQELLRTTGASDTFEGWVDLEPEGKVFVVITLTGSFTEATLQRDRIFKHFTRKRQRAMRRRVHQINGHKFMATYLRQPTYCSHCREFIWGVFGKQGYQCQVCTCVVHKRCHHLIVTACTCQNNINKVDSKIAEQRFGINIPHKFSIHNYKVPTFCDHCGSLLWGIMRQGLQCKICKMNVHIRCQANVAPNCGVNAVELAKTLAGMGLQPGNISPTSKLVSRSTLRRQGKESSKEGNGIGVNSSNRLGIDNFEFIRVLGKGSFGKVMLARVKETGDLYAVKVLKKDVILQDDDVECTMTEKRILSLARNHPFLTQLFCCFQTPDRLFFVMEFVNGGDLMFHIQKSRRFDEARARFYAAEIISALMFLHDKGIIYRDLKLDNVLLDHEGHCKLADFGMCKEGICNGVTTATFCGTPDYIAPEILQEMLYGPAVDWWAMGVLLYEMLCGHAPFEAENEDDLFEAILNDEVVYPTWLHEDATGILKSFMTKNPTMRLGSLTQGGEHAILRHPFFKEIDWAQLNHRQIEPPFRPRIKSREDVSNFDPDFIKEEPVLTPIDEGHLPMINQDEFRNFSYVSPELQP

NTRK1 (human) = NTRK1 (human) (UniProt P04629)
LTK (human) = LTK (human) (UniProt P29376)
CAMK2B (human) = CAMK2B (human) (UniProt Q13554)

Chain of ADCK4 (human) (Q96D53 whole entry, looked up): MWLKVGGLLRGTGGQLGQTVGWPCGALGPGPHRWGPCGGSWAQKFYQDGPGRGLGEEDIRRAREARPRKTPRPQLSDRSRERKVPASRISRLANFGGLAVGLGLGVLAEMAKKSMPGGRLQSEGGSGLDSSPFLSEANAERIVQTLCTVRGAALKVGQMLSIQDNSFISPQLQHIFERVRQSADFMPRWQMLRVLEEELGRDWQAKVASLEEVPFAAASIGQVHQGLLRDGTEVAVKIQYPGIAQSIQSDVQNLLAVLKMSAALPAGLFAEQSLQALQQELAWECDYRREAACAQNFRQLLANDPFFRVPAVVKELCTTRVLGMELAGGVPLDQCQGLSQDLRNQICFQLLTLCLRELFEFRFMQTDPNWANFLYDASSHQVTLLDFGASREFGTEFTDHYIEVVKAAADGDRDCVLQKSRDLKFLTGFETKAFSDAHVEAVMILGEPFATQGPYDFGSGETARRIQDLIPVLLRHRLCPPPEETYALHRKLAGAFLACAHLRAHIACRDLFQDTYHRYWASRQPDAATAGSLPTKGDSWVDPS

kinase still bound, per cent of control (ROCK2 (human)): 100% | kinase still bound, per cent of control (RPS6KA5 KD1 (human)): 98% | kinase still bound, per cent of control (PLK2 (human)): 79% | kinase still bound, per cent of control (ADCK4 (human)): 100% | kinase still bound, per cent of control (PRKAA1 (human)): 82% | kinase still bound, per cent of control (CAMK1D (human)): 100% | kinase still bound, per cent of control (ERBB4 (human)): 100% | kinase still bound, per cent of control (STK36 (human)): 42% | kinase still bound, per cent of control (BMPR1A (human)): 100% | kinase still bound, per cent of control (ULK2 (human)): 96% | kinase still bound, per cent of control (CDK18 (human)): 100% | kinase still bound, per cent of control (CDK3 (human)): 89% | kinase still bound, per cent of control (TLK2 (human)): 80% | kinase still bound, per cent of control (CDK11B (human)): 100% | kinase still bound, per cent of control (EPHA6 (human)): 100% | kinase still bound, per cent of control (SLK (human)): 63% | kinase still bound, per cent of control (STK32B (human)): 100% | kinase still bound, per cent of control (CAMK2A (human)): 89% | kinase still bound, per cent of control (STK17B (human)): 84% | kinase still bound, per cent of control (IKBKB (human)): 80% | kinase still bound, per cent of control (FLT3 (human)): 100% | kinase still bound, per cent of control (MET (human)): 96% | kinase still bound, per cent of control (MAPK6 (human)): 100% | kinase still bound, per cent of control (PHKG1 (human)): 100% | kinase still bound, per cent of control (SIK3 (human)): 84% | kinase still bound, per cent of control (CDK9 (human)): 58% | kinase still bound, per cent of control [1]: 100% | kinase still bound, per cent of control (NLK (human)): 86% | kinase still bound, per cent of control (CDC2L2 (human)): 100% | kinase still bound, per cent of control [2]: 74% | kinase still bound, per cent of control (NIM1 (human)): 100% | kinase still bound, per cent of control (RIPK4 (human)): 100% | kinase still bound, per cent of control (CDK17 (human)): 100% | kinase still bound, per cent of control (CDC42BPB (human)): 100% | kinase still bound, per cent of control (NUAK1 (human)): 100% | kinase still bound, per cent of control [3]: 100% | kinase still bound, per cent of control (CSNK1D (human)): 81% | kinase still bound, per cent of control (PRKCH (human)): 100% | kinase still bound, per cent of control (NTRK1 (human)): 100% | kinase still bound, per cent of control (LTK (human)): 100%
Structure (SMILES): Cc1cnc(-c2cnc(NCCNc3ccc(C#N)cn3)nc2-c2ccc(Cl)cc2Cl)[nH]1
kinase still bound, per cent of control (NEK9 (human)): 100%

kinase still bound, per cent of control (ROCK2 (human)): 93% | kinase still bound, per cent of control (RPS6KA5 KD1 (human)): 47% | kinase still bound, per cent of control (PLK2 (human)): 87% | kinase still bound, per cent of control (ADCK4 (human)): 57% | kinase still bound, per cent of control (PRKAA1 (human)): 4% | kinase still bound, per cent of control (CAMK1D (human)): 45% | kinase still bound, per cent of control (ERBB4 (human)): 46% | kinase still bound, per cent of control (STK36 (human)): 53% | kinase still bound, per cent of control (BMPR1A (human)): 66% | kinase still bound, per cent of control (ULK2 (human)): 35% | kinase still bound, per cent of control (CDK18 (human)): 12% | kinase still bound, per cent of control (CDK3 (human)): 75% | kinase still bound, per cent of control (TLK2 (human)): 56% | kinase still bound, per cent of control (CDK11B (human)): 100% | kinase still bound, per cent of control (EPHA6 (human)): 34% | kinase still bound, per cent of control (SLK (human)): 44% | kinase still bound, per cent of control (STK32B (human)): 100% | kinase still bound, per cent of control (CAMK2A (human)): 0.8% | kinase still bound, per cent of control (STK17B (human)): 0% | kinase still bound, per cent of control (IKBKB (human)): 78% | kinase still bound, per cent of control (FLT3 (human)): 0.05% | kinase still bound, per cent of control (MET (human)): 86% | kinase still bound, per cent of control (MAPK6 (human)): 100% | kinase still bound, per cent of control (PHKG1 (human)): 15% | kinase still bound, per cent of control (SIK3 (human)): 24% | kinase still bound, per cent of control (CDK9 (human)): 26% | kinase still bound, per cent of control [1]: 14% | kinase still bound, per cent of control (NLK (human)): 88% | kinase still bound, per cent of control (CDC2L2 (human)): 100% | kinase still bound, per cent of control [2]: 1.8% | kinase still bound, per cent of control (NIM1 (human)): 85% | kinase still bound, per cent of control (RIPK4 (human)): 40% | kinase still bound, per cent of control (CDK17 (human)): 12% | kinase still bound, per cent of control (CDC42BPB (human)): 90% | kinase still bound, per cent of control (NUAK1 (human)): 12% | kinase still bound, per cent of control [3]: 100% | kinase still bound, per cent of control (CSNK1D (human)): 21% | kinase still bound, per cent of control (CAMK2B (human)): 3.6% | kinase still bound, per cent of control (PRKCH (human)): 100% | kinase still bound, per cent of control (NTRK1 (human)): 19% | kinase still bound, per cent of control (LTK (human)): 100%
Structure (SMILES): O=C1Nc2cc(Br)ccc2/C1=C1/Nc2ccccc2/C1=N\O
kinase still bound, per cent of control (NEK9 (human)): 98%

kinase still bound, per cent of control (ROCK2 (human)): 100% | kinase still bound, per cent of control (RPS6KA5 KD1 (human)): 100% | kinase still bound, per cent of control (PLK2 (human)): 100% | kinase still bound, per cent of control (ADCK4 (human)): 100% | kinase still bound, per cent of control (PRKAA1 (human)): 100% | kinase still bound, per cent of control (CAMK1D (human)): 100% | kinase still bound, per cent of control (ERBB4 (human)): 100% | kinase still bound, per cent of control (STK36 (human)): 100% | kinase still bound, per cent of control (BMPR1A (human)): 78% | kinase still bound, per cent of control (ULK2 (human)): 100% | kinase still bound, per cent of control (CDK18 (human)): 89% | kinase still bound, per cent of control (CDK3 (human)): 68% | kinase still bound, per cent of control (TLK2 (human)): 93% | kinase still bound, per cent of control (CDK11B (human)): 100% | kinase still bound, per cent of control (EPHA6 (human)): 100% | kinase still bound, per cent of control (SLK (human)): 100% | kinase still bound, per cent of control (STK32B (human)): 100% | kinase still bound, per cent of control (CAMK2A (human)): 100% | kinase still bound, per cent of control (STK17B (human)): 74% | kinase still bound, per cent of control (IKBKB (human)): 100% | kinase still bound, per cent of control (FLT3 (human)): 86% | kinase still bound, per cent of control (MET (human)): 92% | kinase still bound, per cent of control (MAPK6 (human)): 100% | kinase still bound, per cent of control (PHKG1 (human)): 97% | kinase still bound, per cent of control (SIK3 (human)): 77% | kinase still bound, per cent of control (CDK9 (human)): 89% | kinase still bound, per cent of control [1]: 100% | kinase still bound, per cent of control (NLK (human)): 72% | kinase still bound, per cent of control (CDC2L2 (human)): 100% | kinase still bound, per cent of control [2]: 99% | kinase still bound, per cent of control (NIM1 (human)): 100% | kinase still bound, per cent of control (RIPK4 (human)): 100% | kinase still bound, per cent of control (CDK17 (human)): 79% | kinase still bound, per cent of control (CDC42BPB (human)): 75% | kinase still bound, per cent of control (NUAK1 (human)): 100% | kinase still bound, per cent of control [3]: 90% | kinase still bound, per cent of control (CAMK2B (human)): 100% | kinase still bound, per cent of control (PRKCH (human)): 100% | kinase still bound, per cent of control (LTK (human)): 100%
Structure (SMILES): COc1ccc(CNC(=O)Nc2ncc([N+](=O)[O-])s2)cc1
kinase still bound, per cent of control (NEK9 (human)): 100%
